The values below come from patent publication US8143393B2, “Substituted 4-amino-pyrrolotriazine derivatives useful for treating hyper-proliferative disorders and diseases associated with angiogenesis” (Bayer HealthCare LLC, priority 2005, dated 2012).

This test addresses T1, FGFR-1 (Homo sapiens, UniProt P11362).
T1 construct: GST; made in house
The test can be described thus: FGFR-1 TR-FRET biochemical assay. A digest of the protocol: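 FGFR1-GST (5 nM) was incubated with poly GT-biotin (25 nM) and 0.6 uM ATP in HEPES pH 7.5/MgCl2 with 1% DMSO for 1 h at room temperature. Phosphorylation was read by LANCE TR-FRET (Eu-anti-pTyr/SA-APC, 665/615 ratio). Percent inhibition was background-corrected against no-ATP wells, with final compound concentrations of 10 μM–0.128 nM.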
On the technique in general: Time-resolved FRET reads energy transfer from a long-lived donor to a nearby acceptor.

The mark [1] stands for this setting: 0.6 uM ATP, 5 nM FGFR1-GST, bounds given in nM.

T1 sequence (P11362 22-822): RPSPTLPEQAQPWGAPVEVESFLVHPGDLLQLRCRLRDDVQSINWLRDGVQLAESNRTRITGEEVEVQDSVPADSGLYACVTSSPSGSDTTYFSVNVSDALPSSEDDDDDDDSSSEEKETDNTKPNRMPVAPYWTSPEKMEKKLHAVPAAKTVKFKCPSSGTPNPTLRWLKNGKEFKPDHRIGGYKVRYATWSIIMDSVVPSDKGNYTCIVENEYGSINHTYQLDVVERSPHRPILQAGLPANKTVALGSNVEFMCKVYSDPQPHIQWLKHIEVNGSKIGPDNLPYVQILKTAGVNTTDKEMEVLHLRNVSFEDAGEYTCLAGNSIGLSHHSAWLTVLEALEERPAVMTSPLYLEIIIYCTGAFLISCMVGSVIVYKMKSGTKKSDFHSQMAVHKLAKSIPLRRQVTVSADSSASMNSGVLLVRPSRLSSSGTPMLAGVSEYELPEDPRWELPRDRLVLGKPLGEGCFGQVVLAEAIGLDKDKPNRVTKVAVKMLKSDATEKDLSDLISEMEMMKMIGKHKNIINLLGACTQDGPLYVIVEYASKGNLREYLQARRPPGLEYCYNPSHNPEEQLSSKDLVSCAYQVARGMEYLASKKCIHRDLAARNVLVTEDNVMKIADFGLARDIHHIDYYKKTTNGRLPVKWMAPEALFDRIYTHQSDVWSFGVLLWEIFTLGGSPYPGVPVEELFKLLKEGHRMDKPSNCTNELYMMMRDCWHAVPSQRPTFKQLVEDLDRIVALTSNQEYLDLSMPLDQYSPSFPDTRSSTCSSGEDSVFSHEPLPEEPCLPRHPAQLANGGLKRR

`CC(C)(C)c1ccnc(NC(=O)Nc2ccc(-c3cc(CCN4CCOCC4)n4ncnc(N)c34)cc2F)c1` [Example 228, N-{4-[4-amino-7-(2-morpholin-4-ylethyl)pyrrolo[2,1-f][1,2,4]triazin-5-yl]-2-fluorophenyl}-N′-(4-tert-butylpyridin-2-yl)urea] returned an IC50 under setting [1] of under 10 nM. On to `CNC(=O)N1CCC(c2cc(-c3ccc(NC(=O)Nc4cc(C(F)(F)F)ccc4F)c(F)c3)c3c(N)ncnn23)CC1` [Example 209, 4-{4-amino-5-[3-fluoro-4-({[2-fluoro-5-(trifluoromethyl)phenyl]carbamoyl}amino)phenyl]pyrrolo[2,1-f][1,2,4]triazin-7-yl}-N-methylpiperidine-1-carboxamide], for which the IC50 under setting [1] lay within 10 to 100 nM. Turning to `CN(C)CC(=O)N1CCC(c2cc(-c3ccc(NC(=O)Nc4cc(C(F)(F)F)ccc4F)c(Cl)c3)c3c(N)ncnn23)CC1` [Example 240, N-(4-{4-amino-7-[1-(N,N-dimethylglycyl)piperidin-4-yl]pyrrolo[2,1-f][1,2,4]triazin-5-yl}-2-chlorophenyl)-N′-[2-fluoro-5-(trifluoromethyl)phenyl]urea], the IC50 under setting [1] was under 10 nM. Take `CC(C)(C)c1ccccc1NC(=O)Nc1ccc(-c2cc(CN3CCOCC3)n3ncnc(N)c23)cc1` [Example 49, N-{4-[4-amino-7-(morpholin-4-ylmethyl)pyrrolo[2,1-f][1,2,4]triazin-5-yl]phenyl}-N′-(2-tert-butylphenyl)urea]: the IC50 is over 100 nM under setting [1] and under 1000 nM (upper bound of the bin 'greater than 100 nM but less than 1 μM' (lower bound in E1)). `CC(C)S(=O)(=O)N1CCN(Cc2cc(-c3ccc(NC(=O)Nc4cc(C(F)(F)F)ccc4F)cc3)c3c(N)ncnn23)CC1` [Example 85, N-[4-(4-amino-7-{[4(isopropylsulfonyl)piperazin-1-yl]methyl}pyrrolo[2,1-f][1,2,4]triazin-5-yl)phenyl]-N′-[2-fluoro-5-(trifluoromethyl)phenyl]urea] came in with an IC50 under setting [1] of 10 to 100 nM. For `Nc1ncnn2c(C3CCN(C(=O)CN4CCOCC4)CC3)cc(-c3ccc(NC(=O)Nc4cc(C(F)(F)F)ccc4F)c(F)c3)c12` [Example 115, N-(4-4-amino-7-[1-(morpholin-4-ylacetyl)piperidin-4-yl]pyrrolo[2,1-f][1,2,4]triazin-5-yl-2-fluorophenyl)-N′-[2-fluoro-5-(trifluoromethyl)-phenyl]urea], the IC50 under setting [1] fell in the range of 10 to 100 nM. Same read-out and setting: then `Nc1ncnn2c(CN3CCCOCC3)cc(-c3ccc(NC(=O)Nc4cc(C(F)(F)F)ccn4)cc3)c12` [Example 176, N-{4-[4-amino-7-(1,4-oxazepan-4-ylmethyl)pyrrolo[2,1-f][1,2,4]triazin-5-yl]phenyl}-N′-[4-(trifluoromethyl)pyridin-2-yl]urea], with under 10 nM. Same read-out and setting: then `CC(=O)N1CCC(c2cc(-c3ccc(NC(=O)Nc4cc(C(F)(F)F)ccc4F)c(Cl)c3)c3c(N)ncnn23)CC1` [Example 219, N-{4-[7-(1-acetylpiperidin-4-yl)-4-aminopyrrolo[2,1-f][1,2,4]triazin-5-yl]-2-chlorophenyl}-N′-[2-fluoro-5-(trifluoromethyl)phenyl]urea], with under 10 nM; and `Nc1ncnn2c(CCCN3CCSCC3)cc(-c3ccc(NC(=O)Nc4cc(C(F)(F)F)ccc4F)c(F)c3)c12` [Example 196, N-{4-4-[4-amino-7-(3-thiomorpholin-4-ylpropyl)pyrrolo[2,1-f][1,2,4]triazin-5-yl]-2-fluorophenyl}-N′-[2-fluoro-5-(trifluoromethyl)phenyl]urea], with 10 to 100 nM; and `Nc1ncnn2c(C(=O)CN3CCOCC3)cc(-c3ccc(NC(=O)Nc4cc(C(F)(F)F)ccc4F)cc3)c12` [Example 103, N-{4-[4-amino-7-(morpholin-4-ylacetyl)pyrrolo[2,1-f][1,2,4]triazin-5-yl]phenyl}-N′-[2-fluoro-5-(trifluoromethyl)-phenyl]urea], with 10 to 100 nM.

Consider `CC(=O)N1CCC(c2cc(-c3ccc(NC(=O)Nc4cc(C(F)(F)F)ccn4)c(F)c3)c3c(N)ncnn23)CC1` [Example 237, N-{4-[7-(1-acetylpiperidin-4-yl)-4-aminopyrrolo[2,1-f][1,2,4]triazin-5-yl]-2-fluorophenyl}-N′-[4-(trifluoromethyl)pyridin-2-yl]urea], for which the IC50 under setting [1] was under 10 nM.

A word on the IC50: it is the point on the concentration scale where inhibition reaches its midpoint. Low values mean greater potency in that assay, high ones weaker potency in that assay.
